Test results from PubChem BioAssay (NCI).
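The compound was tested at five concentrations on cells cultured in 96-well plates, with a 48-hour exposure period. Abbreviation: GI50, concentration required for 50% inhibition of growth. TGI is the concentration that stops growth completely.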

Assays:
Assay in all cases: NCI tumour cell line growth inhibition, 48 h
UACC-257 melanoma = tested on: UACC-257 melanoma
NCI-H226 lung = tested on: NCI-H226 lung
SF-268 CNS = tested on: SF-268 CNS
CCRF-CEM leukemia = tested on: CCRF-CEM leukemia
SR leukemia = tested on: SR leukemia
UACC-62 melanoma = tested on: UACC-62 melanoma
HCT-116 colon = tested on: HCT-116 colon
COLO 205 colon = tested on: COLO 205 colon
RPMI-8226 leukemia = tested on: RPMI-8226 leukemia
SNB-75 CNS = tested on: SNB-75 CNS

Row | SMILES | GI50 (UACC-257 melanoma) [µM] | TGI (UACC-257 melanoma) [µM] | GI50 (NCI-H226 lung) [µM] | TGI (NCI-H226 lung) [µM] | GI50 (SF-268 CNS) [µM] | TGI (SF-268 CNS) [µM] | GI50 (CCRF-CEM leukemia) [µM] | TGI (CCRF-CEM leukemia) [µM] | GI50 (SR leukemia) [µM] | TGI (SR leukemia) [µM] | GI50 (UACC-62 melanoma) [µM] | TGI (UACC-62 melanoma) [µM] | GI50 (HCT-116 colon) [µM] | TGI (HCT-116 colon) [µM] | GI50 (COLO 205 colon) [µM] | TGI (COLO 205 colon) [µM] | TGI (RPMI-8226 leukemia) [µM] | TGI (SNB-75 CNS) [µM] | GI50 (RPMI-8226 leukemia) [µM] | GI50 (SNB-75 CNS) [µM]
1 | Cc1cc2nc(-c3ccc(O)c(O)c3)n(Cc3ccc(O)c(O)c3)c2cc1C | 36 | 95.9 | 18.7 | 35 | 18.5 | 84.3 | 4.23 | 25.5 | 4.18 | 19.5 | 19 | 41.1 | 19.6 | 35.1 | 24.5 | > 100 | – | – | – | –
2 | COc1cc([C@@H]2c3cc4c(cc3[C@@H](NCc3cccc(F)c3)C3COC(=O)[C@@H]32)OCO4)cc(OC)c1O (stereo partly specified) | – | 39.6 | – | 6.55 | – | > 65 | – | 18.1 | – | – | – | 10.3 | – | 20.1 | – | > 65 | 19.2 | 13.5 | – | –
3 | CC(=O)/C(=C/N1CCN(C(=O)c2ccco2)C1=S)C(=O)c1ccccc1 | – | – | – | – | 10.7 | 27 | – | – | 2.71 | 13.4 | 7.33 | 16.9 | 6.39 | 16.6 | 16.5 | 45.1 | 18.2 | 35.9 | 3.79 | 10.9
4 | CC1/C(=N/O)CC(c2ccccc2)N(N=O)C1c1ccccc1 (stereo unspecified) | – | > 100 | – | > 100 | – | > 100 | – | > 100 | – | – | – | > 100 | – | > 100 | – | > 100 | > 100 | > 100 | – | –
5 | CCOc1ccccc1NC(=O)C1=C(C)NC(C)=C(C(=O)Nc2ccccc2OCC)C1c1cccc([N+](=O)[O-])c1 | – | > 100 | – | > 100 | – | > 100 | – | > 100 | – | – | – | – | – | – | – | > 100 | > 100 | 89.3 | – | –
6 | Cc1nc(-n2nc(-c3ccccc3)cc2-c2ccccc2)sc1C(=O)/C=C/c1cccc([N+](=O)[O-])c1 | – | 66.1 | – | – | – | 31.2 | – | 44.4 | – | – | – | 27.5 | – | – | – | 30.8 | 19.4 | 51.7 | – | –
7 | C[C@H]1CC[C@@H]2[C@@H](C)[C@H]3[C@H](C[C@H]4[C@@H]5CC=C6C[C@@H](O)CC[C@]6(C)[C@H]5CC[C@]34C)N2C1 | – | > 100 | – | > 100 | – | > 100 | – | > 100 | – | 56.1 | – | > 100 | – | > 100 | – | 39.2 | > 100 | – | – | –
8 | COc1ccc(C2C3=C(COC3=O)N(CCO)c3cc4c(cc32)CCC4)cc1 (stereo unspecified) | 4.34 | > 50 | 21.4 | > 50 | 7.05 | > 50 | 3.98 | > 50 | – | – | 2.65 | > 50 | 2.12 | > 50 | 6.2 | > 50 | > 50 | 13.7 | 11.4 | 1.46
9 | CC1(C2CCC3(C)C(C2)C3Sc2ccccc2)OCCO1 (stereo unspecified) | – | 41.5 | – | – | – | > 100 | – | 40.3 | – | – | – | 43.1 | – | 34 | – | 35.8 | 32.7 | > 100 | – | –
10 | COc1cc(CCc2ccncc2)cc(OC)c1OC | – | > 100 | – | > 100 | – | > 100 | – | > 100 | – | – | – | > 100 | – | > 100 | – | > 100 | > 100 | > 100 | – | –
